# Source: ChEMBL document CHEMBL3091442, “Synthesis and antitumor activity evaluation of maleopimaric acid N-aryl imide atropisomers” (Bioorg Med Chem Lett, 2013)
# Columns and labels:
# NCI-H460 [1] = assay: Induction of apoptosis in human NCI-H460 cells assessed as late apoptotic cells at 45 uM after 24 hrs by Annexin V-FITC/propidium iodide staining-based flow cytometry (reference value: 0.8%); format: functional
# MGC-803 = assay: Cytotoxicity against human MGC803 cells after 72 hrs by MTT assay; format: functional, cell-based; conditions: MGC-803, 72 h
# NCI-H460 [2] = assay: Cell cycle arrest in human NCI-H460 cells assessed as accumulation at diploid S phase at IC50 after 48 hrs by propidium iodide staining-based FACS analysis (reference value: 23.27%); format: functional
# NCI-H460 [3] = assay: Cell cycle arrest in human NCI-H460 cells assessed as accumulation at diploid G2 phase at IC50 after 48 hrs by propidium iodide staining-based FACS analysis (reference value: 8.14%); format: functional
# HCT-116 = assay: Cytotoxicity against human HCT116 cells after 72 hrs by MTT assay; format: functional, cell-based; conditions: HCT-116, 72 h
# HepG2 = assay: Cytotoxicity against human HepG2 cells after 72 hrs by MTT assay; format: functional, cell-based; conditions: HepG2, 72 h
# NCI-H460 [4] = assay: Cell cycle arrest in human NCI-H460 cells assessed as accumulation at diploid G1 phase at IC50 after 48 hrs by propidium iodide staining-based FACS analysis (reference value: 68.60%); format: functional
# A549 = assay: Cytotoxicity against human A549 cells after 72 hrs by MTT assay; format: functional, cell-based; conditions: A549, 72 h
# NCI-H460 [5] = assay: Cytotoxicity against human NCI-H460 cells after 72 hrs by MTT assay; format: functional, cell-based; conditions: NCI-H460, 72 h
# NCI-H460 [6] = assay: Induction of apoptosis in human NCI-H460 cells assessed as early apoptotic cells at 45 uM after 24 hrs by Annexin V-FITC/propidium iodide staining-based flow cytometry (reference value: 1.5%); format: functional
SMILES,Activity (NCI-H460 [1]) [%],IC50 (MGC-803) [µM],Activity (NCI-H460 [2]) [%],Activity (NCI-H460 [3]) [%],IC50 (HCT-116) [µM],IC50 (HepG2) [µM],Activity (NCI-H460 [4]) [%],IC50 (A549) [µM],IC50 (NCI-H460 [5]) [µM],Activity (NCI-H460 [6]) [%]
O=c1[nH]cc(F)c(=O)[nH]1 [FLUOROURACIL],6.5,15.3,28.07,0,8.32,19.4,71.93,20.1,23.3,16.8
CC(C)C1=C[C@]23CC[C@@H]4[C@](C)(CCC[C@@]4(C)C(=O)O)[C@H]2C[C@H]1[C@H]1C(=O)OC(=O)[C@H]13,,61.8,,,98.7,> 100,,81.2,> 100,
